Where two headings read alike, the source gives them in different places.
Tests used:
A549 cells = experiment: Anti-proliferation assay (Alamar Blue metabolism);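 further: 384-well plates, 72–80 h exposure at 37 °C, Alamar Blue fluorescence (ex 530 nm) read 3.5–5 h after dye addition, inhibition relative to mean of vehicle-only wells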
Experimental: Human non-small cells lung carcinoma cells A549 (ATCC# CCL-185), were grown at 37±0.5° C. and 5% CO2 in DMEM supplemented with 10% FBS, 2 mM glutamine, 1% penicillin, and 1% streptomycin.
Stock solutions (1000×) of each compound were prepared in DMSO and stored at −20° C. Master stock plates of 2-fold or 4-fold serial dilutions of individual compounds were prepared in 384-well plates. Combination matrices of test compounds were generated from these master stock plates by dilution into growth media described above. […] The combination matrices were used immediately and discarded.
The anti-proliferation assays were performed in 384-well plates. 6.6 μL of 10× stock solutions from the combination matrices were added to 40 μL of culture media in assay wells. The tumor cells were liberated from the culture flask using a solution of 0.25% trypsin. Cells were diluted in culture media such that 3000 or 6000 cells were delivered in 20 μL of media into each assay well. Assay plates were incubated for 72-80 hours at 37° C. ±0.5° C. with 5% CO2. Twenty microliters of 20% Alamar Blue warmed to 37° C. ±0.5° C. was added to each assay well following the incubation period. Alamar Blue metabolism was quantified by the amount of fluorescence intensity 3.5-5.0 hours after addition. Quantification, using an LJL Analyst AD reader (LJL Biosystems), was taken in the middle of the well with high attenuation, a 100 msec read time, an excitation filter at 530 nm, and an emission filter at 575 nm. For some experiments, quantification was performed using a Wallac Victor^2 reader. Measurements were taken at the top of the well with stabilized energy lamp control; a 100 msec read time, an excitation filter at 530 nm, and an emission filter at 590 nm.
The percent inhibition (% I) for each well was calculated using the following formula: % I=[(avg. untreated wells−treated well)/(avg. untreated wells)]×100 The average untreated well value (avg. untreated wells) is the arithmetic mean of 40 wells from the same assay plate treated with vehicle alone.
Inhibition of proliferation was measured by anti-proliferation assay as described below after incubation with the test compound(s) for 72 hours.

[1] = cited from earlier work

Work on `O=c1[nH]cc(F)c(=O)[nH]1` [5-Fluorouracil, 5-fluorouracil] yielded an inhibition at 0.01 µM (A549 cells; Homo sapiens, A549, read-out: Percent inhibition of Alamar Blue Metabolism, 5-fluorouracil 0.01 μM alone) of 2.9%, an inhibition at 0.1 µM (A549 cells; Homo sapiens, A549, read-out: Percent inhibition of Alamar Blue Metabolism, 5-fluorouracil 0.10 μM alone) of -0.5% and an inhibition at 0.5 µM (A549 cells; Homo sapiens, A549, read-out: Percent inhibition of Alamar Blue Metabolism, 5-fluorouracil 0.50 μM alone) of 40.6%. The inhibition at 0.75 µM (A549 cells; Homo sapiens, A549, read-out: Percent inhibition of Alamar Blue Metabolism, 5-fluorouracil 0.75 μM alone) was 64.3%, the inhibition at 1 µM (A549 cells; Homo sapiens, A549, read-out: Percent inhibition of Alamar Blue Metabolism, 5-fluorouracil 1.00 μM alone) was 75.4% and the inhibition at 1.5 µM (A549 cells; Homo sapiens, A549, read-out: Percent inhibition of Alamar Blue Metabolism, 5-fluorouracil 1.50 μM alone) was 73.6%. For the same compound, the inhibition at 2 µM (A549 cells; Homo sapiens, A549, read-out: Percent inhibition of Alamar Blue Metabolism, 5-fluorouracil 2.00 μM alone) was 87.2%, the inhibition at 5 µM (A549 cells; Homo sapiens, A549, read-out: Percent inhibition of Alamar Blue Metabolism, 5-fluorouracil 5.00 μM alone) was 79.8% and the inhibition at 10 µM (A549 cells; Homo sapiens, A549, read-out: Percent inhibition of Alamar Blue Metabolism, 5-fluorouracil 10.00 μM alone) was 82.4%.

In the case of `N.N.O=C([O-])C1(C(=O)[O-])CCC1.[Pt+2]` [Carboplatin, carboplatin], the “Percent inhibition of Alamar Blue Metabolism” value (shortened to “Percent inhibition”) (A549 cells; carboplatin 0.15 μM alone) is reported as 5.5%, the “Percent inhibition” value (A549 cells; carboplatin 0.30 μM alone) is reported as 14.5% and the “Percent inhibition” value (A549 cells; carboplatin 0.59 μM alone) is reported as 9.8%. For the same compound, the “Percent inhibition” value (A549 cells; carboplatin 1.19 μM alone) was −19.0%, the “Percent inhibition” value (A549 cells; carboplatin 2.38 μM alone) was 13.9% and the “Percent inhibition” value (A549 cells; carboplatin 4.75 μM alone) was 16.4%. The “Percent inhibition” value (A549 cells; carboplatin 9.50 μM alone) was 35.8%, the “Percent inhibition” value (A549 cells; carboplatin 19.00 μM alone) was 30.5% and the “Percent inhibition” value (A549 cells; carboplatin 38.00 μM alone) was 48.7%.

In the case of `COc1cccc2c1C(=O)c1c(O)c3c(c(O)c1C2=O)C[C@@](O)(C(=O)CO)C[C@@H]3O[C@H]1C[C@H](N)[C@H](O)[C@H](C)O1` [Doxorubicin, doxorubicin], the inhibition at 0.0008 µM (A549 cells; Homo sapiens, A549, read-out: Percent inhibition of Alamar Blue Metabolism, doxorubicin 0.0008 μM alone) is reported as 32%, the inhibition at 0.0016 µM (A549 cells; Homo sapiens, A549, read-out: Percent inhibition of Alamar Blue Metabolism, doxorubicin 0.0016 μM alone) is reported as 27.5% and the inhibition at 0.0031 µM (A549 cells; Homo sapiens, A549, read-out: Percent inhibition of Alamar Blue Metabolism, doxorubicin 0.0031 μM alone) is reported as 34.4%. The inhibition at 0.0063 µM (A549 cells; Homo sapiens, A549, read-out: Percent inhibition of Alamar Blue Metabolism, doxorubicin 0.0063 μM alone) was 40.3%, the inhibition at 0.0125 µM (A549 cells; Homo sapiens, A549, read-out: Percent inhibition of Alamar Blue Metabolism, doxorubicin 0.0125 μM alone) was 55.6% and the inhibition at 0.025 µM (A549 cells; Homo sapiens, A549, read-out: Percent inhibition of Alamar Blue Metabolism, doxorubicin 0.0250 μM alone) was 63.8%. The inhibition at 0.05 µM (A549 cells; Homo sapiens, A549, read-out: Percent inhibition of Alamar Blue Metabolism, doxorubicin 0.0500 μM alone) was 67.5%, the inhibition at 0.1 µM (A549 cells; Homo sapiens, A549, read-out: Percent inhibition of Alamar Blue Metabolism, doxorubicin 0.1000 μM alone) was 63% and the inhibition at 0.2 µM (A549 cells; Homo sapiens, A549, read-out: Percent inhibition of Alamar Blue Metabolism, doxorubicin 0.2000 μM alone) was 62.9%.

`COc1cc([C@@H]2c3cc4c(cc3[C@@H](O[C@@H]3O[C@@H]5CO[C@@H](C)O[C@H]5[C@H](O)[C@H]3O)[C@H]3COC(=O)[C@H]23)OCO4)cc(OC)c1O` [Etoposide, etoposide] gave an inhibition at 0.04 µM (A549 cells; Homo sapiens, A549, read-out: Percent inhibition of Alamar Blue Metabolism, etoposide 0.04 μM alone) of 3.9%, an inhibition at 0.08 µM (A549 cells; Homo sapiens, A549, read-out: Percent inhibition of Alamar Blue Metabolism, etoposide 0.08 μM alone) of 46.5% and an inhibition at 0.16 µM (A549 cells; Homo sapiens, A549, read-out: Percent inhibition of Alamar Blue Metabolism, etoposide 0.16 μM alone) of 38.7%. The inhibition at 0.31 µM (A549 cells; Homo sapiens, A549, read-out: Percent inhibition of Alamar Blue Metabolism, etoposide 0.31 μM alone) was 42.7%, the inhibition at 0.63 µM (A549 cells; Homo sapiens, A549, read-out: Percent inhibition of Alamar Blue Metabolism, etoposide 0.63 μM alone) was 52.4% and the inhibition at 1.25 µM (A549 cells; Homo sapiens, A549, read-out: Percent inhibition of Alamar Blue Metabolism, etoposide 1.25 μM alone) was 62.8%. For the same compound, the inhibition at 2.5 µM (A549 cells; Homo sapiens, A549, read-out: Percent inhibition of Alamar Blue Metabolism, etoposide 2.50 μM alone) was 76.1%, the inhibition at 5 µM (A549 cells; Homo sapiens, A549, read-out: Percent inhibition of Alamar Blue Metabolism, etoposide 5.00 μM alone) was 77.5% and the inhibition at 10 µM (A549 cells; Homo sapiens, A549, read-out: Percent inhibition of Alamar Blue Metabolism, etoposide 10.00 μM alone) was 79.4%.

`Nc1ccn([C@@H]2O[C@H](CO)[C@@H](O)C2(F)F)c(=O)n1` [Gemcitabine, gemcitabine] showed an inhibition at 0.00016 µM (A549 cells; Homo sapiens, A549, read-out: Percent inhibition of Alamar Blue Metabolism, gemcitabine 0.00016 μM alone) of 7.9%, an inhibition at 0.00033 µM (A549 cells; Homo sapiens, A549, read-out: Percent inhibition of Alamar Blue Metabolism, gemcitabine 0.00033 μM alone) of 19.1% and an inhibition at 0.00066 µM (A549 cells; Homo sapiens, A549, read-out: Percent inhibition of Alamar Blue Metabolism, gemcitabine 0.00066 μM alone) of 11.3%. For the same compound, the inhibition at 0.00131 µM (A549 cells; Homo sapiens, A549, read-out: Percent inhibition of Alamar Blue Metabolism, gemcitabine 0.00131 μM alone) was 12.3%, the inhibition at 0.00263 µM (A549 cells; Homo sapiens, A549, read-out: Percent inhibition of Alamar Blue Metabolism, gemcitabine 0.00263 μM alone) was 13.8% and the inhibition at 0.00525 µM (A549 cells; Homo sapiens, A549, read-out: Percent inhibition of Alamar Blue Metabolism, gemcitabine 0.00525 μM alone) was 61.8%. The inhibition at 0.0105 µM (A549 cells; Homo sapiens, A549, read-out: Percent inhibition of Alamar Blue Metabolism, gemcitabine 0.01050 μM alone) was 87.4%, the inhibition at 0.021 µM (A549 cells; Homo sapiens, A549, read-out: Percent inhibition of Alamar Blue Metabolism, gemcitabine 0.02100 μM alone) was 88.7% and the inhibition at 0.042 µM (A549 cells; Homo sapiens, A549, read-out: Percent inhibition of Alamar Blue Metabolism, gemcitabine 0.04200 μM alone) was 89.8%.

In the case of `N=C(N)c1ccc(OCCCCCOc2ccc(C(=N)N)cc2)cc1` [Pentamidine isethionate, 4,4′-diamidino-diphenoxypentane di(β-hydroxyethanesulfonate)], the solubility ([1]; in ether, acetone, and chloroform) is given as “insoluble” and the solubility ([1]; in water and glycerin) is given as “soluble”.

With `CC[C@]1(O)C[C@@H]2CN(CCc3c([nH]c4ccccc34)[C@@](C(=O)OC)(c3cc4c(cc3OC)N(C)[C@H]3[C@@](O)(C(=O)OC)[C@H](OC(C)=O)[C@]5(CC)C=CCN6CC[C@]43[C@@H]65)C2)C1` [Vinblastine, vinblastine] the inhibition at 0.0001 µM (A549 cells; Homo sapiens, A549, read-out: Percent inhibition of Alamar Blue Metabolism, vinblastine 0.0001 μM alone) was -22.3%, the inhibition at 0.0002 µM (A549 cells; Homo sapiens, A549, read-out: Percent inhibition of Alamar Blue Metabolism, vinblastine 0.0002 μM alone) was -8.3% and the inhibition at 0.0004 µM (A549 cells; Homo sapiens, A549, read-out: Percent inhibition of Alamar Blue Metabolism, vinblastine 0.0004 μM alone) was 7.4%. It also gave an inhibition at 0.0008 µM (A549 cells; Homo sapiens, A549, read-out: Percent inhibition of Alamar Blue Metabolism, vinblastine 0.0008 μM alone) of 41.5%, an inhibition at 0.0016 µM (A549 cells; Homo sapiens, A549, read-out: Percent inhibition of Alamar Blue Metabolism, vinblastine 0.0016 μM alone) of 48.4% and an inhibition at 0.0031 µM (A549 cells; Homo sapiens, A549, read-out: Percent inhibition of Alamar Blue Metabolism, vinblastine 0.0031 μM alone) of 61.1%. It also gave an inhibition at 0.0063 µM (A549 cells; Homo sapiens, A549, read-out: Percent inhibition of Alamar Blue Metabolism, vinblastine 0.0063 μM alone) of 67.2%, an inhibition at 0.0125 µM (A549 cells; Homo sapiens, A549, read-out: Percent inhibition of Alamar Blue Metabolism, vinblastine 0.0125 μM alone) of 77.2% and an inhibition at 0.025 µM (A549 cells; Homo sapiens, A549, read-out: Percent inhibition of Alamar Blue Metabolism, vinblastine 0.0250 μM alone) of 85.5%.

Source: patent publication US20050054708A1, “Combinations of drugs for the treatment of neoplasms” (priority 2003, published 2005)
